From patent US6825350B2, “Sulfonamide and sulfamide substituted imidazoquinolines and methods for the treatment of periodontal disease using these and other immune response modifiers” (3M Innovative Properties Company, priority 1999, dated 2004)
Where a name gives a salt, the structure may show the parent alone. Read-outs that look alike come from different tables or passages of the source.

Key:
interferon (α) = assay: Cytokine induction in human cells: interferon (α) by ELISA; format: cell-based; conditions: human PBMCs, 18 to 24 hours incubation, ELISA of culture supernatant, read-out: Lowest Effective Concentration (μM) Interferon
[1] = system: tumor necrosis factor (α); assay: Cytokine induction in human cells: tumor necrosis factor (α) by ELISA; format: cell-based; conditions: Homo sapiens, PBMC, human PBMCs, 18 to 24 hours incubation, ELISA of culture supernatant; read-out: Lowest Effective Concentration (μM) Tumor Necrosis Factor

Row | melting point | SMILES | minimal effective concentration (interferon (α); Homo sapiens, PBMC) [µM] | minimal effective concentration [1] [µM] | minimal effective concentration (interferon (α)) [µM]
1 | 197 to 199.5 °C | CCCCc1nc2c(N)nc3ccccc3c2n1CCCCNS(=O)(=O)Cc1ccccc1 [Example 4, N-[4-(4-Amino-2-butyl-1H-imidazo[4,5-c]quinolin-1-yl)butyl]phenylmethanesulfonainide] | – | – | –
2 | 176 to 178.2 °C | CCCCc1nc2c(N)nc3ccccc3c2n1CCCCNS(=O)(=O)c1cccc([N+](=O)[O-])c1 (as salt: hydrochloride) [Example 7, N^1-[4-(4-Amino-2-butyl-1H-imidazo[4,5-c]quinolin-1-yl)butyl]-3-nitro-1-benzenesulfonamide Hydrochloride] | – | – | –
3 | 96 °C (dec.) | CCCCc1nc2c(N)nc3ccccc3c2n1CCCCNS(=O)(=O)c1ccc([N+](=O)[O-])cc1 (as salt: hydrochloride) [Example 9, N^1-[4-(4-Amino-2-butyl-1H-imidazo[4,5-c]quinolin-1-yl)butyl]-4-nitro-1-benzenesulfonamide Hydrochloride] | – | – | –
4 | 96 °C (dec.) | CCCCc1nc2c(N)nc3ccccc3c2n1CCCCNS(=O)(=O)c1cccc2cnccc12 [Example 11, N^5-[4-(4-Amino-2-butyl-1H-imidazo[4,5-c]quinolin-1-yl)butyl]-5-isoquinolinesulfonamide] | 0.01 | 1.11 | –
5 | 200 to 201 °C | CN(C)c1cccc2c(S(=O)(=O)NCCCCn3cnc4c(N)nc5ccccc5c43)cccc12 [Example 2, N^1-[4-(4-Amino-1H-imidazo[4,5-c]quinolin-1-yl)butyl]-5-(dimethylamino)-1-naphthalenesulfonamide] | > 30 | > 30 | –
6 | 110.2 °C (dec.) | CCCCc1nc2c(N)nc3ccccc3c2n1CCCCNS(=O)(=O)c1cccc(N)c1 (as salt: hydrochloride) | – | – | –
7 | 78.1 to 79.5 °C | COc1ccc(Cc2nc3c(N)nc4ccccc4c3n2CCCCNS(C)(=O)=O)cc1 [Example 12, N-[4-(4-Amino-2-(4-methoxybenzyl)-1H-imidazo[4,5-c]quinolin-1-yl]butyl]methanesulfonamide] | – | – | –
8 | 75.5 to 79 °C | CCCCc1nc2c(N)nc3ccccc3c2n1CCCCNS(=O)(=O)c1ccccc1 [Example 5, N^1-[4-(4-Amino-2-butyl-1H-imidazo [4,5-c]quinolin-1-yl)butyl]-1-benzenesulfonamide] | – | – | –
9 | 223 to 224 °C | CCCCc1nc2c(N)nc3ccccc3c2n1CCCCNS(=O)(=O)c1cccc2c(N(C)C)cccc12 [Example 1, N^1-[4-(4-Amino-2-butyl-1H-imidazo[4,5-c]quinolin-1-yl)butyl]-5-(dimethylamino)-1-naphthalenesulfonamide] | 0.12 | 3.33 | –
10 | 214 to 216 °C | Nc1nc2ccccc2c2c1nc(-c1ccccc1)n2CCCCNS(=O)(=O)c1ccc(F)cc1 [Example 15, N-[4-(4-Amino-2-phenyl-1H-imidazo[4,5-c]quinolin-1-yl)butyl]-4-fluoro-1-benzenesulfonamide] | – | – | –
11 | 137.5 to 141.5 °C | CCCCc1nc2c(N)nc3ccccc3c2n1CCCCNS(=O)(=O)c1cccs1 [Example 3, N^2-[4-(4-Amino-2-butyl-1H-imidazo[4,5-c]quinolin-1-yl)butyl]-2-thiophenesulfonamide] | – | – | 0.01
12 | 191 to 193 °C | COCCc1nc2c(N)nc3c(c2n1CCCCNS(=O)(=O)c1ccc(F)cc1)CCCC3 [Example 14, N^1-{4-[4-Amino-2-(2-methoxyethyl)-6,7,8,9-tetrahydro-1H-imidazo[4,5-c]quinolin-1-yl]butyl}-4-fluoro-1-benzenesulfonamide] | – | – | –
13 | 203.1 to 205 °C | CCCCc1nc2c(N)nc3ccccc3c2n1CCCCNS(=O)(=O)c1ccc(N)cc1 (as salt: hydrochloride) | – | – | –
14 | – | CCCCc1nc2c(N)nc3ccccc3c2n1CCNS(=O)(=O)c1ccc(OC)cc1 [Example 27] | 1.11 | 30 | –
15 | – | COCCc1nc2c(N)nc3ccccc3c2n1CCCCNS(=O)(=O)c1cccc2c(N(C)C)cccc12 [Example 114] | 0.01 | > 10 | –
16 | – | CCCCc1nc2c(N)nc3ccccc3c2n1CCCCNS(=O)(=O)c1ccc(C(=O)O)cc1 [Example 84] | 1 | 10 | –
17 | – | CCCCc1nc2c(N)nc3ccccc3c2n1CCCCNS(=O)(=O)c1ccccc1OC(F)(F)F [Example 91] | 0.01 | 1 | –
18 | – | CCCCc1nc2c(N)nc3ccccc3c2n1CCCCNS(=O)(=O)c1ccc(OC)cc1 [Example 37] | 0.01 | 1.11 | –
19 | 234 to 235 °C | CS(=O)(=O)NCCCCn1c(-c2ccccc2)nc2c(N)nc3ccccc3c21 [Example 16, N-[4-(4-Amino-2-phenyl-1H-imidazo[4,5-c]quinolin-1-yl)butyl]methanesulfonamide] | – | – | –
20 | – | COCCc1nc2c(N)nc3ccccc3c2n1CCCCNS(=O)(=O)Cc1ccccc1[N+](=O)[O-] [Example 138] | 0.0001 | 10 | –

Row | melting point | SMILES | minimal effective concentration (interferon (α); Homo sapiens, PBMC) [µM] | minimal effective concentration [1] [µM] | minimal effective concentration (interferon (α)) [µM]
21 | – | CCCCCCCCS(=O)(=O)NCCCCn1cnc2c(N)nc3c(c21)CCCC3 [Example 56] | > 30 | > 30 | –
22 | – | CCCCc1nc2c(N)nc3ccccc3c2n1CCCCNS(=O)(=O)c1c(C)noc1C [Example 94] | 0.001 | 1 | –
23 | – | COc1ccc(S(=O)(=O)NCCCCn2cnc3c(N)nc4c(c32)CCCC4)cc1 [Example 65] | 3.33 | > 30 | –
24 | – | COCCc1nc2c(N)nc3ccccc3c2n1CCCCNS(=O)(=O)c1ccc(C)cc1 [Example 159] | 0.0001 | 0.1 | –
25 | – | CCCCc1nc2c(N)nc3ccccc3c2n1CCCCNS(=O)(=O)c1ccc(C)cc1 [Example 40] | 0.0015 | 3.33 | –
26 | – | CCCCc1nc2c(N)nc3c(c2n1CCCCNS(C)(=O)=O)CCCC3 [Example 202] | 0.0001 | 1 | –
27 | – | CCCCc1nc2c(N)nc3c(c2n1CCCCNS(=O)(=O)Cc1ccccc1)CCCC3 [Example 205] | 0.0001 | 1 | –
28 | – | CCCCc1nc2c(N)nc3ccccc3c2n1CCCCNS(=O)(=O)c1cc(F)ccc1C [Example 106] | 1 | 1 | –
29 | – | CCCCc1nc2c(N)nc3ccccc3c2n1CCNS(=O)(=O)c1cc(Br)ccc1OC [Example 24] | 0.12 | 30 | –
30 | – | CCCCc1nc2c(N)nc3ccccc3c2n1CCNS(=O)(=O)c1c(C)cc(C)cc1C [Example 26] | 10 | > 30 | –
31 | – | CCCCc1nc2c(N)nc3ccccc3c2n1CCNS(=O)(=O)CCC [Example 17] | 1.11 | 3.33 | –
32 | – | CCCCS(=O)(=O)NCCCCn1c(CCOC)nc2c(N)nc3c(c21)CCCC3 [Example 209] | 0.0001 | 0.1 | –
33 | – | CCCCc1nc2c(N)nc3c(c2n1CCCCNS(=O)(=O)c1cccs1)CCCC3 [Example 204] | 0.0001 | 1 | –
34 | – | COCCc1nc2c(N)nc3ccccc3c2n1CCCCNS(=O)(=O)N[C@H](C)c1ccccc1 [Example 226] | 0.0001 | 0.1 | –
35 | – | CCCCc1nc2c(N)nc3ccccc3c2n1CCCCNS(=O)(=O)c1ccc(Br)s1 [Example 99] | 0.1 | 10 | –
36 | – | COc1ccc(Br)cc1S(=O)(=O)NCCCCn1cnc2c(N)nc3c(c21)CCCC3 [Example 66] | > 30 | 30 | –
37 | – | COCCc1nc2c(N)nc3ccccc3c2n1CCCCNS(=O)(=O)c1ccccc1F [Example 120] | 0.0001 | 1 | –
38 | – | CCCCc1nc2c(N)nc3ccccc3c2n1CCNS(=O)(=O)c1cccc2c(N(C)C)cccc12 [Example 33] | 1.11 | 10 | –
39 | – | COCCc1nc2c(N)nc3c(c2n1CCCCNS(=O)(=O)c1cccc2c(N(C)C)cccc12)CCCC3 [Example 213] | 0.0001 | 1 | –
